According to US20190350995A1, “THERAPEUTIC COMPOSITION DERIVED FROM ANTHOSTEMA SENEGALENSE” (LABORATOIRE MICHEL IDERNE, priority 2016, published 2019):
≈ marks a conversion by molar mass, not a printed value. Read-outs that look alike come from different tables or passages of the source.

Columns and labels:
HIV type 1 = test: In vitro anti-viral replication test (method of E De Clercq, MTT) against HIV type 1 in infected MT-4 cells; assay type: cell-based, HIV-1; conditions: for HIV-1 SI: selectivity index, ratio CC50/EC50; for biological (inhibitory) activity against HIV-1, in words: in vitro, "significant" = CC50≥45 μg/mL and selectivity index ≥50
Method: (§1) The anti-viral replication efficiency of the molecules of the chemical composition of the invention was tested in vitro against the replication of the viruses HIV type 1 (strain MO and HIV type 2 (strain ROD) in the infected MT-4 cells.
(§2) More specifically, the antiretroviral activity of the molecules was tested by effectively carrying out the method of E De Clercq in a microplate.
(§3) This method consists of producing a cell culture of MT-4 in a microplate, containing as cell culture medium: the medium developed by the Roswell Park Memorial Institute (referred to as “RPMI 1640”), comprising of foetal calf serum, glutamine, sodium bicarbonate, and gentamicin as bacterial inhibitor.
(§4) The molecules of the chemical composition of the invention are added at different concentrations into the cell growth medium. Each concentration of molecules to be tested is prepared in triplicate. The MT4 cells placed in the presence of the molecules to be tested are referred to as “treated cells”.
(§5) In each cell growth well, a defined amount of HIV-1 or HIV-2 is added in order to obtain the same concentration of virus in each well.
(§6) The cells placed in the presence of the HIV are referred to as “infected cells”.
(§7) Five days after the start of the process of infecting the MT4 cells with HIV-1 or HIV-2 in the presence of the molecules to be tested at different concentrations, a count is taken of the number of living cells by means of an MTT (tetrazolium salt) colorimetric assay by measuring the optical density at 540 nm.
(§8) As negative controls, use is made of cells without HIV 1 or HIV 2, referred to as “non-infected cells”, as well as of cells without the molecules to be tested referred to as “untreated cells”.
(§9) Thus, succinctly stated, the method of E De Clercq provides the means to obtain a density measurement at 540 nm for: • the cells infected with HIV-1 or HIV-2, treated with the molecules of the composition of the invention; • the cells not infected with HIV, treated with the molecules of the composition of the invention; • the cells infected with HIV-1 or HIV-2, not treated with the molecules of the composition of the invention; • the cells not infected with HIV, not treated with the molecules of the composition of the invention.
(§10) In particular, the effectiveness of the molecules of the composition of the invention was tested: • by measurement and calculation of the (median) 50% inhibitory concentration (IC50); • by measurement and calculation of the 50% cytotoxic concentration (CC50); • by measurement and calculation of the 50% effective concentration dose (EC50); and • by measurement and calculation of the selectivity index (SI), of the fractions containing the said molecules in the presence of the two strains of HIV.
(§11) The IC50 is the concentration of the molecule that makes it possible to decrease by 50% the viral proliferation of the negative control in vitro for a given time period, that is to say of the HIV without substance, only in its growth culture medium.
(§12) The EC50 is calculated using the following formula:
[(ODT)HIV^+]−[(ODC)HIV^+]/[(ODT)HIV^−]−[(ODC)HIV^−]×100 […]

HIV type 2 (strain ROD) = test: In vitro anti-viral replication test (method of E De Clercq, MTT) against HIV type 2 (strain ROD) in infected MT-4 cells; assay type: cell-based, HIV-2; conditions: for HIV-2 SI: selectivity index, ratio CC50/EC50; for biological (inhibitory) activity against HIV-2, in words: in vitro, "significant" = CC50≥45 μg/mL and selectivity index ≥50
Method: as §1, §2, §3
The molecules of the chemical composition of the invention are added at different concentrations into the cell growth medium. […] The MT4 cells placed in the presence of the molecules to be tested are referred to as “treated cells”.
as §5, §6, §7, §8, §9, §10, §11, §12
[(ODT)HIV^+]−[(ODC)HIV^+]/[(ODT)HIV^−]−[(ODC)HIV^−]×100
Where: • (ODT)HIV^+ represents the optical density measurement at 540 nm, 5 days after infection, for the cells infected with HIV and treated with the composition of the invention, that is to say in the presence of molecules of the composition of the invention; • (ODC) HIV^+ represents the optical density measurement at 540 nm, 5 days after infection, for the cells infected with HIV in the absence of the molecules of the composition of the invention; • (ODT) HIV^− represents the optical density measurement at 540 nm, 5 days after infection, for the cells not infected with HIV and treated with the composition of the invention, that is to say in the presence of the molecules of the composition of the invention; i(ODC) HIV^− represents the optical density measurement at 540 nm, 5 days after infection, for the cells not infected with HIV in the absence of the molecules of the composition of the invention.
The selectivity index represents the ratio CC50/EC50. […]

MT-4 cells = test: 50% cytotoxic concentration in MT-4 cells (MTT); assay type: cell-based; conditions: for CC50: Homo sapiens; for HIV-1 CC 50: HIV-1, average over duplicates; for HIV-2 CC 50: HIV-2, average over duplicates
Method: as §3, §4, §7, §8, §9, §10
The CC50 is the concentration of active molecules that makes it possible to decrease by 50% the […]. In other words, it is the concentration of active molecules that makes it possible to decrease by 50% the viability of cells.

HIV-1 or HIV-2 = test: In vitro anti-HIV test of fractions and isolated compounds, virus type not separated in the statement; assay type: cell-based
Method: The anti-HIV activity was tested in vitro according to the method of Clerq E on each of the abovementioned fractions AsC4.1, AsC4.2, AsC4.3, AsC4.4, AsC4.5, AsC4.6, AsC4.7 and AsC4.8.
More than ten different compounds were obtained for all of the different mobile phases used. Each compound was individually tested against HIV-1 and HIV-2 according to the in vitro method mentioned above.

[1] = "significant" = CC50≥45 μg/mL and selectivity index ≥50
[2] = infected MT-4 cells, 5 days after infection, MTT, average over duplicates

SMILES | HIV-1 SI (HIV type 1) | HIV-2 SI (HIV type 2 (strain ROD)) | biological (inhibitory) activity against HIV-1, in words (HIV type 1) | biological (inhibitory) activity against HIV-2, in words (HIV type 2 (strain ROD)) | biological activity against HIV (HIV-1 or HIV-2), in words (HIV-1 or HIV-2; [1]) | HIV-1 IC 50 (HIV type 1; [2]) [µg/mL] | HIV-2 IC 50 (HIV type 2 (strain ROD); [2]) [µg/mL] | HIV-1 CC 50 (MT-4 cells) [µg/mL] | HIV-2 CC 50 (MT-4 cells) [µg/mL] | also measured
Cc1ccnc2c1NC(=O)c1cccnc1N2C1CC1 [Nevirapine, nevirapine] | >4 | <1 |  |  |  |  |  |  |  | IC50 (HIV type 1; Human immunodeficiency virus 1, MT4, 120 h, infected MT-4 cells, 5 days after infection, MTT, average over duplicates, read-out: HIV-1 IC 50): 0.05 µg/mL (≈ 0.188 µM); IC50 (HIV type 2 (strain ROD); Human immunodeficiency virus 2, MT4, 120 h, infected MT-4 cells, 5 days after infection, MTT, average over duplicates, read-out: HIV-2 IC 50): > 4 µg/mL; CC50 (MT-4 cells; MT4, HIV-1, average over duplicates, read-out: HIV-1 CC 50): 0.011 µg/mL (≈ 0.0413 µM); CC50 (MT-4 cells; MT4, HIV-2, average over duplicates, read-out: HIV-2 CC 50): > 4 µg/mL
CC1(C)CC[C@]2(C(=O)O)CC=C3[C@]4(C)CCC5C(C)(C)[C@@H](OC(=O)c6ccccc6)[C@H](O)C[C@]5(C)C4CC[C@@]3(C)C2C1 (some centres unmarked) [molecule B] |  |  | at least two times greater | at least two times greater | significant biological activity |  |  |  |  | biological activity against HIV (HIV-1 or HIV-2), in words (HIV-1 or HIV-2; "significant" = CC50≥45 μg/mL and selectivity index ≥50, listed as AsC4.5.7.2): “significant” biological activity
CC(=O)OC1CCC2(C)C3CCC4C(=CC(=O)C5C(C)(C)CCCC45C)C3(C)CCC2C1(C)C (centres unmarked) [molecule A] |  |  | at least two times greater | at least two times greater | significant biological activity |  |  |  |  | biological activity against HIV (HIV-1 or HIV-2), in words (HIV-1 or HIV-2; "significant" = CC50≥45 μg/mL and selectivity index ≥50, listed as AsC4.5.1.1): “significant” biological activity
Nc1ccn([C@H]2CC[C@@H](CO)O2)c(=O)n1 [Dideoxycitidine, dideoxycitidine] | >20 | >20 |  |  |  | 0.16 | 0.19 | 0.12 | 0.11 | 
O=c1[nH]cnc2c1ncn2[C@H]1CC[C@@H](CO)O1 [Dideoxyinosine, dideoxyinosine] | >50 | >50 |  |  |  | 2.09 | 3.78 | 0.68 | 1.22 | 
